Measurements from publication PMC13539321 (Journal of Advanced Research, 2025).

Columns and labels:
B16F10 cells [1] = assay: Cytotoxicity assay; format: cell-based; details: 72 h
B16F10 cells [2] = assay: Intracellular melanogenesis inhibition assay, B16F10; format: cell-based; details: melanotan II 100 nM, 72 h; for order of inhibitory effectiveness (macroscopic colour): 100 μM; for inhibitory effect on melanin synthesis: various concentrations
[3] = target: Mushroom TYR (EC 1.14.18.1) (Agaricus bisporus, UniProt C7FF04); assay: biochemical; details: IC50 value ± SD
A375 cells [4] = assay: Cytotoxicity assay; format: cell-based; details: 72 h
mushroom TYR = mushroom TYR (Agaricus bisporus, UniProt C7FF04); assay: biochemical; format: binding
3D melanin skin model = assay: 3D human skin model assay; format: cell-based; details: 100 µM, six doses, UVB 50 mJ/cm^2 for seven days, n = 6
in vitro = details: human, microsomes
Plasma stability study = format: in vitro ADME; details: human
[5] = human, microsomes
A375 cells [6] = assay: Intracellular melanogenesis inhibition assay, A375; format: cell-based; details: melanotan II 100 nM, 72 h, all tested concentrations
[7] = L-dopa, substrate L-dopa (diphenolase), n = 3, screening of de novo generated compounds (Table 1)
[8] = L-tyrosine, substrate L-tyrosine (monophenolase), n = 3, screening of de novo generated compounds (Table 1)

Mushroom TYR (EC 1.14.18.1), sequence (C7FF04 1-392 limits assumed): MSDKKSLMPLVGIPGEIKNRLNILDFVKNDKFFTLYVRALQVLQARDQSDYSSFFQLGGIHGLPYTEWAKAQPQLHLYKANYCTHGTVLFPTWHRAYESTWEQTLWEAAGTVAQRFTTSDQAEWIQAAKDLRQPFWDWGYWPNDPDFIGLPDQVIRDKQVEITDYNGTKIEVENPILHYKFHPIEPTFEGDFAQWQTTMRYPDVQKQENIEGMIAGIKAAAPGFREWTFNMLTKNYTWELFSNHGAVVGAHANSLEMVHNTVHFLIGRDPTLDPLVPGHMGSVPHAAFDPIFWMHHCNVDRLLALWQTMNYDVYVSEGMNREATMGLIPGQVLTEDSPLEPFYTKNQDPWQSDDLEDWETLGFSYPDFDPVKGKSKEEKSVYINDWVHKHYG
mushroom TYR, sequence (C7FF04 1-392 limits assumed): as above

Row | SMILES | IC50 [3, 7] | IC50 [3, 8] | order of inhibitory effectiveness (macroscopic colour) (B16F10 cells [2]) | cytotoxicity (A375 cells [4]; 200 μM) | further results
1 | O=C(CCc1cccc(O)c1)N1CCN(Cc2ccc(F)cc2)CC1 [Compound V, 1-(4-(4-fluorobenzyl)piperazin-1-yl)-3-(3-hydroxyphenyl)propan-1-one] | 18.5 ± 2.4 µM | 9.6 ± 1.1 µM | compound V-24 > β-arbutin > kojic acid ≈ compound V | weak cytotoxicity | cytotoxicity (B16F10 cells [1]; 200 μM): no cytotoxicity; inhibitory effect on melanin synthesis (B16F10 cells [2]): comparable to that of kojic acid; IC50 ([3]; L-dopa): 41.8 ± 3 µM; IC50 ([3]; L-tyrosine): 11.9 ± 0.5 µM; cytotoxicity (A375 cells [4]; 100 μM): no cytotoxicity; Kd (mushroom TYR): 24.2 ± 20.3 µM
2 | Cc1ccc(CN2CCN(C(=O)/C=C/c3ccc(O)cc3O)CC2)cc1 [Compound V-24, (E)-3-(2,4-dihydroxyphenyl)-1-(4-(4-methylbenzyl)piperazin-1-yl)prop-2-en-1-one] |  |  | compound V-24 > β-arbutin > kojic acid ≈ compound V | weak cytotoxicity | cytotoxicity (B16F10 cells [1]; 100 μM): no cytotoxicity; L value (3D melanin skin model): 83.38 ± 0.40; half-life at 1 µM (in vitro): 0.58 h; remaining at 0.75 h, 1 µM (in vitro): 42%; half-life at 1 µM (Plasma stability study): 8.74 h; remaining at 2 h, 1 µM (Plasma stability study): 89.1%; Eh [5]: 69.00%; inhibitory effect on melanin synthesis (B16F10 cells [2]): akin to that of β-arbutin; IC50 ([3]; L-dopa): 0.018 ± 0.0007 µM; IC50 ([3]; L-tyrosine): 0.02 ± 0.001 µM; cytotoxicity (A375 cells [4]; 100 μM): no cytotoxicity; inhibitory effect on melanin synthesis (A375 cells [6]): most pronounced inhibitory effect; Kd (mushroom TYR): 13.8 ± 4.2 µM
3 | O=C(C=Cc1ccccc1)NCCc1cccc(O)c1 [XI, N-(3-hydroxyphenethyl)cinnamamide] | > 800 µM | 622 ± 82.8 µM |  |  | 
4 | O=C(/C=C/c1ccccc1)N1CCN(c2cccc(O)c2)CC1 [XII, (E)-1-(4-(3-hydroxyphenyl)piperazin-1-yl)-3-phenylprop-2-en-1-one] | 199 ± 22.7 µM | 35.9 ± 1.2 µM |  |  | 
5 | O=C(Oc1ccc(N2CCNCC2)cc1)c1cnc2ccccc2c1 [XVI, 4-(piperazin-1-yl)phenyl quinoline-3-carboxylate] | 138 ± 5.1 µM | 16 ± 1.6 µM |  |  | 
6 | O=C(Oc1ccc(N2CCNCC2)cc1)c1cc(O)nc2ccccc12 [XVII, 4-(piperazin-1-yl)phenyl 2-hydroxyquinoline-4-carboxylate] | 303 ± 47.6 µM | 164 ± 19.8 µM |  |  | 
7 | O=c1cc(CO)occ1O [kojic acid, reference compound] |  |  | compound V-24 > β-arbutin > kojic acid ≈ compound V | no cytotoxicity | cytotoxicity (B16F10 cells [1]; 200 μM): no cytotoxicity; L value (3D melanin skin model): 70.98 ± 0.68

Second part, led by results:

Row | IC50 [3, 7] | IC50 [3, 8] | SMILES | order of inhibitory effectiveness (macroscopic colour) (B16F10 cells [2]) | cytotoxicity (A375 cells [4]; 200 μM) | further results
8 | > 800 µM | 99.7 ± 15.3 µM | Cc1nc2ccc(C(=O)NCc3ccc(O)cc3)cc2[nH]1 [XIII, N-(4-hydroxybenzyl)-2-methyl-1H-benzo[d]imidazole-6-carboxamide] |  |  | 
9 | > 800 µM | 449 ± 36.1 µM | Cc1nc2cc(C(=O)N3CCCN(Cc4ccccc4)CC3)ccc2[nH]1 [XIV, (4-benzyl-1,4-diazepan-1-yl)(2-methyl-1H-benzo[d]imidazol-5-yl)methanone] |  |  | 
10 | > 800 µM | > 800 µM | O=C(c1cccc(OCc2ccccc2)c1)N1CCN(c2ccc(O)cc2)CC1 [XV, (3-(benzyloxy)phenyl)(4-(4-hydroxyphenyl)piperazin-1-yl)methanone] |  |  | 
